Assay results: publication PMC10258805, “Nonpeptidic Oxazole-Based Prolyl Oligopeptidase Ligands with Disease-Modifying Effects on α-Synuclein Mouse Models of Parkinson’s Disease” (Journal of Medicinal Chemistry, 2023)
“Also recorded” adds a separate entry of the source.

Tests used:
[1] = biological target: T1, human FAP (Homo sapiens, UniProt Q12884); assay: Close-relative enzyme specificity assay, FAP; type: biochemical; details: 1 or 10 μM
T1 construct: the human secretion signal was replaced with the HoneyBee melittin secretion signal; HoneyBee melittin secretion signal (N); His tag from the C-terminal BaculoDirect vector (inferred from Ni-chelating purification; the vector also adds V5, own knowledge) (C); made in house; host or cells: Sf9 insect cells
T1 sequence (Q12884 26-760 limits assumed): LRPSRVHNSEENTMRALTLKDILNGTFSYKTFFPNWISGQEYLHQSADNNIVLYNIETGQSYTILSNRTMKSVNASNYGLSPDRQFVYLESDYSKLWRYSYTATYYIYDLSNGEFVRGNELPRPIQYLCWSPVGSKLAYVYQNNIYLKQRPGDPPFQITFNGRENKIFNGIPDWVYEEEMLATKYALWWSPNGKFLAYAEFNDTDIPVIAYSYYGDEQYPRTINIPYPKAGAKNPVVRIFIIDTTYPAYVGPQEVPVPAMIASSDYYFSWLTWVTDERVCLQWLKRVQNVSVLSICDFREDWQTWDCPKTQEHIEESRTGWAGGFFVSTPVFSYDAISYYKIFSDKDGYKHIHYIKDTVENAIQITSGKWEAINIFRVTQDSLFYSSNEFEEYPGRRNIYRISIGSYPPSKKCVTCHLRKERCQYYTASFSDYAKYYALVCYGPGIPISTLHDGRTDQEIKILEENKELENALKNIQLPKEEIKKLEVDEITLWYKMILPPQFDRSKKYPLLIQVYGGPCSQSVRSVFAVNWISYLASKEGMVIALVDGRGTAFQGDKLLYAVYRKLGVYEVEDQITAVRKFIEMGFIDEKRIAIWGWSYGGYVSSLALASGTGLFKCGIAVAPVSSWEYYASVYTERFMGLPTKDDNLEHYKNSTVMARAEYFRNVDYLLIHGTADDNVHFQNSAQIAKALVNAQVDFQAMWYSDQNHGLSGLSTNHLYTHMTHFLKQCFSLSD
Text: FAP: A gateway-entry clone for human FAP was purchased from Dharmacon (Accession number DQ891423), and the human secretion signal was replaced with the HoneyBee melittin secretion signal. For transfection and expression of FAP in Sf9 insect cells, the C-terminal BaculoDirect kit from LifeTechnologies was used. The enzyme was purified from the supernatant of the insect cells using immobilized Ni-chelating chromatography (GE Healthcare, Diegem, Belgium), followed by anion-exchange chromatography using a 1 mL HiTrap Q and size exclusion chromatography using the Superdex 200 column (GE Healthcare, Diegem, Belgium).
Measurements were done on the Infinite 200 as above.

[2] = biological target: T2, Recombinant human DPP2 (Homo sapiens, UniProt Q9UHL4); assay: Close-relative enzyme specificity assay, DPP2; type: biochemical; details: 1 or 10 μM
T2 construct: purchased R&D Systems 3438-SE-010
Experimental: DPP2: Recombinant human DPP2 was purchased from R&D Systems (#3438-SE-010).
DPP2: Lys-Ala-pNA was used as the substrate at a concentration of 1 mM at pH 5.5 (100 mM NaAc, 10 mM EDTA, 14 μg/mL aprotinin). […] The substrate was added, and the velocities of pNA release were measured kinetically at 405 nm for at least 10 min at 37 °C. Measurements were done on the Infinite 200 as above.

[3] = system: oligomeric αSyn in A30P*A53T transgenic mice; assay: Oligomeric αSyn in A30P*A53T transgenic mice; type: in vivo, mouse; details: TG mice, 10 mg/kg i.p. every 12 h for 7 days, vs vehicle

Cc1nc(CCCc2ccccc2)oc1N1CCC[C@H]1C#N [HUP-55, (S)-1-(4-Methyl-2-(3-phenylpropyl)oxazol-5-yl)pyrrolidine-2-carbonitrile]
inhibition of FAP [1]: no inhibition; also recorded: does not inhibit | inhibition of DPP2 [2]: no inhibition; also recorded: does not inhibit | decrease of oligomeric αSyn in the SNpc ([3]; nonsignificant): 38% | decrease of oligomeric αSyn in the STR ([3]; not statistically significant): 47%
